Data on 18 compounds can be found in US20090131366A1, “Use of Amine-Borane Compounds as Anti-Microbial Agents” (priority 2005, published 2009).

As a reminder, the MIC is the smallest concentration in the dilution series that meets the test's criterion for growth inhibition.

Data set [1] concerns Candida albicans CBS 562. The class given is cell-based.
Data set [2] deals with Candida glabrata 4681. In kind it is cell-based. The note with it: Table 1, footnote c.
In data set [3] the test system is Candida glabrata 4475 (resistant to azoles). In kind it is cell-based. To be noted: Table 1, footnote c.
In data set [4] the test system is Candida albicans 615. The class given is cell-based.
Data set [5] has as its system Candida albicans 607. In kind it is cell-based.
Data set [6] concerns Candida glabrata 4787. The class given is cell-based.
The test system of data set [7] is Candida glabrata 4210. The class given is cell-based. The note with it: Table 1, footnote c.
For data set [8], the system named is Aspergillus fumigatus 64026. The class given is cell-based.
Data set [9] deals with male ICR mice. To be noted: mice that received the MTD.
The nature of data set [10]: in vivo. To be noted: male, ICR, mouse, iv.

Converted amounts (≈) assume the structure as drawn. Like-named read-outs stand apart in the source and are kept apart here. Bounds are passed on as bounds.

With `CCCCCCCCCCCN(C)C` [K-I3, dimethyl-undecyl-amine cyanofluorobromoborane], the MIC in data set [1] (Candida albicans, CBS562, 24 h, Table 1, read-out: MIC) came out at 7.8 µM (≈ 1.56 µg/mL).

Turning to “N,N,N′,N′-tetramethyl- decane-1,10-diamine bis- carboxyborane [K-J3]”, the MIC in data set [2] is 65^c μg per liter; in [3], 31.2^c μg per liter; in data set [4] (Table 1), 907 µM; in [1] (Table 1), 188 µM; in [5] (Table 1), 188 µM; in data set [6] (Table 1) it was 65 µM. The minimal inhibitory concentration (MIC) in data set [7] is on record as 65^c μg per liter.

Take `CCCCCCCCCCCN(C)C` [K-I4, dimethyl-undecyl-amine cyanofluoroborane]: the MIC in data set [4] (Table 1) was found to be 64 µM (≈ 12.8 µg/mL); in [1] (Table 1) it was 64 µM (≈ 12.8 µg/mL); in data set [8] (Table 1), 129 µM (≈ 25.7 µg/mL); in [5] (Table 1), 64 µM (≈ 12.8 µg/mL).

For the compound `CCCCCCCCCCCN(C)C` [K-I1, dimethyl-undecyl-amine cyanobromoborane], the MIC in data set [4] (Candida albicans, 615, Table 1 column C, read-out: MIC) turned out to be 49 µM (≈ 9.77 µg/mL); in data set [1] (Candida albicans, CBS562, Table 1 column A, read-out: MIC), 49 µM (≈ 9.77 µg/mL); in data set [8] (Aspergillus fumigatus, 64026, Table 1 column I, read-out: MIC) it was 131 µM (≈ 26.1 µg/mL); in [5] (Candida albicans, 607, Table 1 column B, read-out: MIC), 49 µM (≈ 9.77 µg/mL).

As to `C[N+](C)(CCCCCCCCCC[N+](C)(C)[B-](Br)(Br)C#N)[B-](Br)(Br)C#N` [K-J2, N,N,N′,N′-tetramethyl-decane-1,10-diamine bis-cyanodibromoborane], the MIC in data set [2] is 65^c μg per liter; in data set [3] it was 65^c μg per liter; in data set [4] (Table 1) it was 104 µM (≈ 64.7 µg/mL); in [1] (Table 1) it was 104 µM (≈ 64.7 µg/mL); in [5] (Table 1), 104 µM (≈ 64.7 µg/mL); in data set [6] (Table 1), 65 µM (≈ 40.4 µg/mL). For the same compound, the minimal inhibitory concentration (MIC) in data set [7] is reported as 65^c μg per liter.

Turning to “N,N,N′,N′-tetramethyl- decane-1,10-diamine bis- cyanobromoborane [K-J1]”, the minimal inhibitory concentration (MIC) in data set [2] is 65^c μg per liter; in data set [3], 65^c μg per liter; in data set [4] (Table 1), 140 µM; in [1] (Table 1), 140 µM; in data set [5] (Table 1) it was 140 µM; in data set [6] (Table 1) it was 65 µM. In [7], the MIC was 65^c μg per liter.

As to `CCCCCCCCCC(O)CN(C)C` (centres unmarked) [K-U, 1-dimethylamino-undecan-2-ol cyanoborane], the minimum inhibitory concentration (MIC) is 983 µM (≈ 212 µg/mL) in data set [4] (Table 1, read-out: MIC); 492 µM (≈ 106 µg/mL) in [1] (CBS562, Table 1, read-out: MIC); 492 µM (≈ 106 µg/mL) in data set [8] (Table 1, read-out: MIC); 492 µM (≈ 106 µg/mL) in data set [5] (Table 1, read-out: MIC).

`C[N+](C)(C)[B-](Br)(Br)C#N` [K-E, trimethyl-amine cyanodibromoborane]: the MIC is >500^c μg per liter in [3]; over 1970 µM in data set [4] (Table 1); 1970 µM (≈ 504 µg/mL) in [1] (Table 1); over 1970 µM in [5] (Table 1); 500^c μg per liter in data set [7].

As for `OC(Cn1cncn1)(Cn1cncn1)c1ccc(F)cc1F` [CAF2, Fluconazole, reference compound], the MIC in data set [4] (Table 1, read-out: MIC) is 1.6 µM (≈ 0.49 µg/mL); in data set [1] (CBS562, Table 1, read-out: MIC), 1.6 µM (≈ 0.49 µg/mL); in data set [8] (Table 1, read-out: MIC) it was over 208 µM; in data set [5] (Table 1, read-out: MIC) it was 1.6 µM (≈ 0.49 µg/mL).

As for `CCCCCCC(C)(O)CN(C)C` (centres unmarked) [K-O, 1-dimethylamino-2-methyl-octan-2-ol cyanoborane], the minimal inhibitory concentration (MIC) was found to be 1100 µM (≈ 206 µg/mL) in [4] (Table 1, read-out: MIC); 2210 µM (≈ 414 µg/mL) in data set [1] (CBS562, Table 1, read-out: MIC); 1100 µM (≈ 206 µg/mL) in [5] (Table 1, read-out: MIC).

`C=CCCN(C)C` [K-D, but-3-enyl-dimethyl-amine cyanoborane]: the minimum inhibitory concentration (MIC) in [4] (Table 1, read-out: MIC) is over 3620 µM; in data set [1] (CBS562, Table 1, read-out: MIC), 470 µM (≈ 46.6 µg/mL); in [8] (Table 1, read-out: MIC) it was over 3620 µM; in data set [5] (Table 1, read-out: MIC), 3620 µM (≈ 359 µg/mL).

As to `CN(C)CCCCCCCCCCCCCCN(C)C` [K-N, N,N,N′,N′-tetramethyl-tetradecane-1,14-diamine bis-cyanoborane], the MIC in [4] (Table 1, read-out: MIC) came out at 43 µM (≈ 12.2 µg/mL); in data set [1] (CBS562, Table 1, read-out: MIC) it was 43 µM (≈ 12.2 µg/mL); in [8] (Table 1, read-out: MIC), 86 µM (≈ 24.5 µg/mL); in data set [5] (Table 1, read-out: MIC) it was 43 µM (≈ 12.2 µg/mL).

Consider `C[C@@H]1[C@H](O)[C@@H](C)/C=C/C=C/C=C/C=C/C=C/C=C/C=C/[C@H](O[C@@H]2O[C@H](C)[C@@H](O)[C@H](N)[C@@H]2O)C[C@@H]2O[C@](O)(C[C@@H](O)C[C@@H](O)[C@H](O)CC[C@@H](O)C[C@@H](O)CC(=O)O[C@H]1C)C[C@H](O)[C@H]2C(=O)O` [CAF1, Amphotericin B, reference compound], for which the MIC in data set [4] (Table 1) amounted to 0.27 µM (≈ 0.25 µg/mL); in data set [1] (Table 1), 0.54 µM (≈ 0.499 µg/mL); in [8] (Table 1), 0.5 µM (≈ 0.462 µg/mL); in data set [5] (Table 1), 0.27 µM (≈ 0.25 µg/mL).

In the case of `CCCCCN(C)C` [K-H, pentyl-dimethyl-amine cyanoborane], the MIC in data set [4] (Table 1, read-out: MIC) is 3240 µM (≈ 373 µg/mL); in data set [1] (CBS562, Table 1, read-out: MIC) it was 810 µM (≈ 93.3 µg/mL); in data set [8] (Table 1, read-out: MIC), 3240 µM (≈ 373 µg/mL); in data set [5] (Table 1, read-out: MIC), 3240 µM (≈ 373 µg/mL).

As to `C=CCCCCN(C)C` [K-V, hex-5-enyl-dimethyl-amine cyanoborane], the MIC was 94 µM (≈ 12 µg/mL) in data set [4] (Table 1, read-out: MIC); 94 µM (≈ 12 µg/mL) in [1] (CBS562, Table 1, read-out: MIC); 94 µM (≈ 12 µg/mL) in data set [8] (Table 1, read-out: MIC); 94 µM (≈ 12 µg/mL) in data set [5] (Table 1, read-out: MIC).

Consider `CCCCN(C)C` [K-G, butyl-dimethyl-amine cyanoborane], for which the minimum inhibitory concentration (MIC) in data set [4] (Table 1, read-out: MIC) was over 3570 µM; in data set [1] (CBS562, Table 1, read-out: MIC) it was 3570 µM (≈ 361 µg/mL); in data set [8] (Table 1, read-out: MIC), over 3570 µM; in data set [5] (Table 1, read-out: MIC), over 3570 µM.

For `CN(C)CCCCCCCCCCCCN(C)C` [K-M, N,N,N′,N′-tetramethyl-dodecane-1,12-diamine bis-cyanoborane], the MIC in data set [2] was 125^c μg per liter; in data set [4] (Table 1, read-out: MIC), 46 µM (≈ 11.8 µg/mL); in [1] (CBS562, Table 1, read-out: MIC), 96 µM (≈ 24.6 µg/mL); in data set [5] (Table 1, read-out: MIC), 194 µM (≈ 49.8 µg/mL); in data set [6] (Nakaseomyces glabratus, Table 1, read-out: MIC) it was 250 µM (≈ 64.1 µg/mL).

Consider `CCCCCCCCCCCN(C)C` [K-I2, dimethyl-undecyl-amine cyanodibromoborane], for which the minimum inhibitory concentration (MIC) in data set [2] was 32^c μg per liter; in data set [4] (Table 1), 39 µM (≈ 7.78 µg/mL); in data set [1] (Table 1), 39 µM (≈ 7.78 µg/mL); in data set [8] (Table 1), 79 µM (≈ 15.8 µg/mL); in data set [5] (Table 1) it was 39 µM (≈ 7.78 µg/mL); in data set [6] (Table 1), 32 µM (≈ 6.38 µg/mL). In data set [9], the “clinical signs, body weights and gross necropsy (day 8)” value is recorded as “No changes”. The MTD in [10] was 73.1 µmol/kg.
